Reference: US20050158374A1, “Compositions and dosage forms for enhanced absorption of metformin” (priority 2003, published 2005)
≈ marks a conversion by molar mass, not a printed value. Where a name gives a salt, the structure may show the parent alone. Read-outs that look alike come from different tables or passages of the source.

Key:
[1] = cited from earlier work
[2] = intravenous administration of metformin HCl to rats; settings: for Metformin base plasma concentration, Average / Metformin base plasma concentration, Rat2 / Metformin base plasma concentration, Rat3 / Metformin base plasma concentration, Rat1: 2 mg/kg intravenously
[3] = for macroscopic evaluation of the G.I. tract for signs of irritation: end of oral gavage study; for time of plasma concentration maximum after treatment: rat, in vivo, po
[4] = in vivo colonic absorption using flushed ligated colonic model in rats; settings: 10 mg/rat intubated into ligated colon
[5] = in vivo; settings: male, Sprague-Dawley, rat, plasma, other: intracolonic bolus, ligated colon, 10 mg/rat
[6] = in vivo; settings: rat, po, 40 mg/kg
[7] = in vivo; settings: Sprague-Dawley, rat, plasma, iv, 2 mg/kg
[8] = in vivo
[9] = conductivity of complexes in aqueous solutions; settings: aqueous solution pH≅5.8, 23° C.

## CCCCCCCCCCCC(=O)O [Lauric (12), lauric acid]
[1]; 20° C.
  Solubility in Acetic acid: 818 mg/mL (≈ 4080 mM)
  Solubility in Acetone: 605 mg/mL (≈ 3020 mM)
  Solubility in Acetonitrile: 76 mg/mL (≈ 379 mM)
  Solubility in Benzene: 936 mg/mL (≈ 4670 mM)
  Solubility in Chloroform: 830 mg/mL (≈ 4140 mM)
  Solubility in Cyclohexanne: 680 mg/mL (≈ 3390 mM)
  Solubility in Ethanol 95%: 912 mg/mL (≈ 4550 mM)
  Solubility in Methanol: 1200 mg/mL (≈ 5990 mM)

## CN(C)C(=N)N=C(N)N [Metformin HCl, metformin hydrochloride]
[2]; Time 0 h
  Metformin base plasma concentration, Average: 0.0 ng/mL
  Metformin base plasma concentration, Rat2: 0 ng/mL
  Metformin base plasma concentration, Rat3: 0 ng/mL
[2]; Time 2 min
  Metformin base plasma concentration, Average: 2483.3 ng/mL
  Metformin base plasma concentration, Rat1: 1430 ng/mL
  Metformin base plasma concentration, Rat2: 2370 ng/mL
  Metformin base plasma concentration, Rat3: 3650 ng/mL
[2]; Time 0.5 h
  Metformin base plasma concentration, Average: 229.2 ng/mL
  Metformin base plasma concentration, Rat1: 262 ng/mL
  Metformin base plasma concentration, Rat2: 331 ng/mL
  Metformin base plasma concentration, Rat3: 94.7 ng/mL
[2]; Time 1 h
  Metformin base plasma concentration, Average: 30.4 ng/mL
  Metformin base plasma concentration, Rat3: 25.2 ng/mL
[2]; Time 1.5 h
  Metformin base plasma concentration, Average: 22.1 ng/mL
  Metformin base plasma concentration, Rat1: 0 ng/mL
  Metformin base plasma concentration, Rat2: 66.3 ng/mL
  Metformin base plasma concentration, Rat3: 0 ng/mL
[2]; Time 2 h
  Metformin base plasma concentration, Average: 0.0 ng/mL
  Metformin base plasma concentration, Rat2: 0 ng/mL
  Metformin base plasma concentration, Rat3: 0 ng/mL
[2]; Time 3 h
  Metformin base plasma concentration, Average: 0.0 ng/mL
  Metformin base plasma concentration, Rat2: 0 ng/mL
  Metformin base plasma concentration, Rat3: 0 ng/mL
[2]; i.v.
  Area Under the Curve (0-4 hrs, based on 1 mg base/rat): 692.5 ng · h/mL-mg
[3]
  macroscopic evaluation of the G.I. tract for signs of irritation: No irritation
  time of plasma concentration maximum after treatment: about 1 hour
[4]
  Area Under the Curve (0-4 hrs, based on 1 mg base/rat): 29.2 ng · h/mL-mg
[5]
  concentration at 0 h: 0 ng/mL
[6]
  Cmax: ~4080 ng/mL
[7]
  concentration at 0 h: 0 ng/mL
  concentration at 1 h: 35.5 ng/mL
  concentration at 2 h: 0 ng/mL
  concentration at 3 h: 0 ng/mL

## CCCCCCCCCC(=O)O.CN(C)C(=N)N=C(N)N [Metformin caprate]
[8]
  Area Under the Curve (0-4 hrs, based on 1 mg base/rat): 548.0 ng · h/mL-mg

## CCCCCCCCCCCC(=O)O.CN(C)C(=N)N=C(N)N [Metformin laurate]
[3]
  macroscopic evaluation of the G.I. tract for signs of irritation: No irritation
  time of plasma concentration maximum after treatment: about 1 hour
[8]
  Area Under the Curve (0-4 hrs, based on 1 mg base/rat): 674.5 ng · h/mL-mg

## CCCCCCCCCCCCCC(=O)O [myristic (14), myristic acid]
[1]
  Solubility in Acetic acid: 102 mg/mL (≈ 447 mM)
  Solubility in Acetone: 159 mg/mL (≈ 696 mM)
  Solubility in Acetonitrile: 18 mg/mL (≈ 78.8 mM)
  Solubility in Benzene: 292 mg/mL (≈ 1280 mM)
  Solubility in Chloroform: 325 mg/mL (≈ 1420 mM)
  Solubility in Cyclohexanne: 215 mg/mL (≈ 941 mM)
  Solubility in Ethanol 95%: 189 mg/mL (≈ 828 mM)
  Solubility in Methanol: 173 mg/mL (≈ 758 mM)

## Metformin oleate
[4]
  Area Under the Curve (0-4 hrs, based on 1 mg base/rat): 408.3 ng · h/mL-mg
[9]; metformin concentration 5 mM
  Conductivity: 136 μS/cm
[9]; metformin concentration 10 mM
  Conductivity: 235 μS/cm
[9]; metformin concentration 20 mM
  Conductivity: 405 μS/cm
